The experiment addresses T1, human TLR8 (Homo sapiens, UniProt Q9NR97).
T1 construct: host or cells: HEK293 (HEK-Blue hTLR8)
T1 sequence (Q9NR97 27-1041): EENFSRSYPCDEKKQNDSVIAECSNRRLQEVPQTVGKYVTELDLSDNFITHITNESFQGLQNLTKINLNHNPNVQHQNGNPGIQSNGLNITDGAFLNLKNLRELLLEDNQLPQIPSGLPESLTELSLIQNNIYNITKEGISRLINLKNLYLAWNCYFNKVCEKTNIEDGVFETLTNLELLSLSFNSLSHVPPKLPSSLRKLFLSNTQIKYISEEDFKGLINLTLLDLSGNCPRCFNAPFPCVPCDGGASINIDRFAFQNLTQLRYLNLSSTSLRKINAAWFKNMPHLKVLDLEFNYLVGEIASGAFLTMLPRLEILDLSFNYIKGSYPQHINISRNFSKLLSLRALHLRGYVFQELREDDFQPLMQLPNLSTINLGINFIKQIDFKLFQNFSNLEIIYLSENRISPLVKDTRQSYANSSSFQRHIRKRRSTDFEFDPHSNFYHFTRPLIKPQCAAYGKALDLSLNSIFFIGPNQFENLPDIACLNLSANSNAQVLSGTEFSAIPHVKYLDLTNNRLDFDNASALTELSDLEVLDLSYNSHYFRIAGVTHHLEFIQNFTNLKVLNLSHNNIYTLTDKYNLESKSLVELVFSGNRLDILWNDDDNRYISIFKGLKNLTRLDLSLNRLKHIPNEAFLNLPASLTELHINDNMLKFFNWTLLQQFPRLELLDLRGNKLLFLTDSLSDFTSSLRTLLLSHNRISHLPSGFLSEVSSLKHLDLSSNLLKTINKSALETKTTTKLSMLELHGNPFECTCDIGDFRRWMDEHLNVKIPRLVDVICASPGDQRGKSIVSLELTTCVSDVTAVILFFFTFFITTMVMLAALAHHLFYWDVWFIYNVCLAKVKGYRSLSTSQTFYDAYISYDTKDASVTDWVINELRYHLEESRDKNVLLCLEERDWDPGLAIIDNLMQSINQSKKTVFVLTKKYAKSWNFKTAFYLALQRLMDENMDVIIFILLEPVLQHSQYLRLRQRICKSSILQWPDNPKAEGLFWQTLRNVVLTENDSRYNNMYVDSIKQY
Put plainly: HEK293-Blue-hTLR-8 cells assay. In kind it is cell-based. To be noted: HEK293-Blue-hTLR8 cells, R848 stimulation, 20 hrs, SEAP reporter; read-out: HEK/hTLR8 IC50. An excerpt: A stable HEK293-Blue-hTLR-8 cell line was purchased from InvivoGen (Cat. #: hkb-htlr8, San Diego, Calif., USA). These cells were originally designed for studying the stimulation of human TLR8 by monitoring the activation of NF-κB. A SEAP (secreted embryonic alkaline phosphatase) reporter gene was placed under the control of the IFN-β minimal promoter fused to five NF-κB and AP-1-binding sites. The SEAP was induced by activating NF-κB and AP-1 via stimulating HEK-Blue hTLR8 cells with TLR8 ligands. Therefore the reporter expression was declined by TLR8 antagonist under the stimulation of a ligand, such as R848, for incubation of 20 hrs. The cell culture supernatant SEAP reporter activity was determined using QUANTI-Blue™ kit (Cat. #: rep-qb1, Invivogen, San Diego, Ca, USA) at a wavelength of 640 nm, a detection medium that turns purple or blue in the presence of alkaline phosphatase.
HEK293-Blue-hTLR8 cells were incubated at a density of 250,000-450,000 cells/mL in a volume of 170 μL in a 96-well plate in Dulbecco's Modified Eagle's medium (DMEM) containing 4.5 g/L glucose, 50 U/mL penicillin, […], […], 2 mM L-glutamine, 10% (v/v) heat-inactivated fetal bovine serum with addition of 20 μL test compound in a serial dilution in the presence of final DMSO at 1% and 10 μL of 60 uM R848 in above DMEM, perform incubation under 37° C. in a CO2 incubator for 20 hrs. Then 20 μL of the supernatant from each well was incubated with […] Quanti-blue substrate solution at 37° C. for 2 hrs and the absorbance was read at 620-655 nm using a spectrophotometer. The signaling pathway that TLR8 activation leads to downstream NF-κB activation has been widely accepted, and therefore similar reporter assay was modified for evaluating TLR8 antagonist.
Turning to `C[C@@H]1CN(c2ccc(C#N)c3ncccc23)C[C@H](CN2CC(n3cc4c(n3)[C@H](C)CNC4)C2)O1` (single isomer, unassigned) [Example 25], the IC50 came to 11 nM.

`C[C@@H]1CN(c2ccc(C#N)c3ncccc23)C[C@H](CN2CC(n3cc4c(n3)[C@@H](C)CNC4)C2)O1` (single isomer, unassigned) [Example 26]: the IC50 is 12 nM.

For the compound `C[C@@H]1CN(c2ccc(C#N)c3ncccc23)C[C@H](CN2CC(n3ncc4c3CN[C@@H](C)C4)C2)O1` (single isomer, unassigned) [Example 27], the IC50 worked out at 8 nM.

Turning to `C[C@@H]1Cc2cnn(C3CN(C[C@H]4CN(c5ccc(C#N)c6ncccc56)C[C@@H](C)O4)C3)c2CN1` (single isomer, unassigned) [Example 28], the IC50 is 10 nM.

Consider `C[C@@H]1CN(c2ccc(C#N)c3ncccc23)C[C@H](CN2CC(n3cc4c(n3)CN[C@@H](C)C4)C2)O1` (single isomer, unassigned) [Example 29], for which the IC50 is 11 nM.

For `C[C@@H]1Cc2cn(C3CN(C[C@H]4CN(c5ccc(C#N)c6ncccc56)C[C@@H](C)O4)C3)nc2CN1` (single isomer, unassigned) [Example 30], the IC50 came to 14 nM.

As to `C[C@@H]1CN(c2ccc(C#N)c3ncccc23)C[C@H](CN2CC(n3ncc4c3[C@@H](C)NCC4)C2)O1` (single isomer, unassigned) [Example 31], the IC50 came out at 5 nM.

`C[C@@H]1CN(c2ccc(C#N)c3ncccc23)C[C@H](CN2CC(n3ncc4c3[C@H](C)NCC4)C2)O1` (single isomer, unassigned) [Example 32]: the IC50 was found to be 10 nM.

As for `C[C@@H]1CN(c2ccc(C#N)c3ncccc23)C[C@H](CN2CC(n3cc4c(n3)[C@@H](C)NCC4)C2)O1` (single isomer, unassigned) [Example 33], the IC50 was determined as 13 nM.

Take `C[C@@H]1CN(c2ccc(C#N)c3ncccc23)C[C@H](CN2CC(n3cc4c(n3)[C@H](C)NCC4)C2)O1` (single isomer, unassigned) [Example 34]: the IC50 was found to be 16 nM.

`C[C@@H]1CN(c2ccc(C#N)c3ncccc23)C[C@H](CN2CC(n3ncc4c3CCNC4)C2)O1` [Example 1, 5-[(2R,6S)-2-methyl-6-[[3-(4,5,6,7-tetrahydropyrazolo[4,3-c]pyridin-1-yl)azetidin-1-yl]methyl]morpholin-4-yl]quinoline-8-carbonitrile]: the IC50 turned out to be 17 nM.

With `C[C@@H]1CN(c2ccc(C#N)c3ncccc23)C[C@H](CN2CC(n3cc4c(n3)CCNC4)C2)O1` [Example 2, 5-[(2R,6S)-2-methyl-6-[[3-(4,5,6,7-tetrahydropyrazolo[4,3-c]pyridin-2-yl)azetidin-1-yl]methyl]morpholin-4-yl]quinoline-8-carbonitrile], the IC50 is 19 nM.

In the case of `C[C@@H]1CN(c2ccc(C#N)c3ncccc23)C[C@H](CN2CC(n3ncc4c3CNCC4)C2)O1` [Example 3, 5-[(2R,6S)-2-methyl-6-[[3-(4,5,6,7-tetrahydropyrazolo[3,4-c]pyridin-1-yl)azetidin-1-yl]methyl]morpholin-4-yl]quinoline-8-carbonitrile], the IC50 worked out at 6 nM.

On to `C[C@@H]1CN(c2ccc(C#N)c3ncccc23)C[C@H](CN2CC(n3cc4c(n3)CNCC4)C2)O1` [Example 4, 5-[(2R,6S)-2-methyl-6-[[3-(4,5,6,7-tetrahydropyrazolo[3,4-c]pyridin-2-yl)azetidin-1-yl]methyl]morpholin-4-yl]quinoline-8-carbonitrile], for which the IC50 is 9 nM.

`C[C@@H]1CN(c2ccc(C#N)c3ncccc23)C[C@H](CN2CC(n3cc4c(n3)CN(C)CC4)C2)O1` [Example 5, 5-[(2R,6S)-2-methyl-6-[[3-(6-methyl-5,7-dihydro-4H-pyrazolo[3,4-c]pyridin-2-yl)azetidin-1-yl]methyl]morpholin-4-yl]quinoline-8-carbonitrile]: the IC50 came to 6 nM.

As to `CCN1CCc2cnn(C3CN(C[C@H]4CN(c5ccc(C#N)c6ncccc56)C[C@@H](C)O4)C3)c2C1` [Example 6, 5-[(2S,6R)-2-[[3-(6-ethyl-5,7-dihydro-4H-pyrazolo[3,4-c]pyridin-1-yl)azetidin-1-yl]methyl]-6-methyl-morpholin-4-yl]quinoline-8-carbonitrile], the IC50 amounted to 5 nM.

Turning to `CCN1CCc2cn(C3CN(C[C@H]4CN(c5ccc(C#N)c6ncccc56)C[C@@H](C)O4)C3)nc2C1` [Example 7, 5-[(2S,6R)-2-[[3-(6-ethyl-5,7-dihydro-4H-pyrazolo[3,4-c]pyridin-2-yl)azetidin-1-yl]methyl]-6-methyl-morpholin-4-yl]quinoline-8-carbonitrile], the IC50 is 5 nM.

With `CC(C)N1CCc2cnn(C3CN(C[C@H]4CN(c5ccc(C#N)c6ncccc56)C[C@@H](C)O4)C3)c2C1` [Example 8, 5-[(2S,6R)-2-[[3-(6-isopropyl-5,7-dihydro-4H-pyrazolo[3,4-c]pyridin-1-yl)azetidin-1-yl]methyl]-6-methyl-morpholin-4-yl]quinoline-8-carbonitrile], the IC50 was 5 nM.

Consider `CC(C)N1CCc2cn(C3CN(C[C@H]4CN(c5ccc(C#N)c6ncccc56)C[C@@H](C)O4)C3)nc2C1` [Example 9, 5-[(2S,6R)-2-[[3-(6-isopropyl-5,7-dihydro-4H-pyrazolo[3,4-c]pyridin-2-yl)azetidin-1-yl]methyl]-6-methyl-morpholin-4-yl]quinoline-8-carbonitrile], for which the IC50 came out at 7 nM.

On to `C[C@@H]1CN(c2ccc(C#N)c3ncccc23)C[C@H](CN2CC(n3ncc4c3CNC4)C2)O1` [Example 10, 5-[(2S,6R)-2-[[3-(5,6-dihydro-4H-pyrrolo[3,4-c]pyrazol-1-yl)azetidin-1-yl]methyl]-6-methyl-morpholin-4-yl]quinoline-8-carbonitrile], for which the IC50 came to 19 nM.

Take `C[C@@H]1CN(c2ccc(C#N)c3ncccc23)C[C@H](CN2CC(n3cc4c(n3)CNC4)C2)O1` [Example 11, 5-[(2S,6R)-2-[[3-(5,6-dihydro-4H-pyrrolo[3,4-c]pyrazol-2-yl)azetidin-1-yl]methyl]-6-methyl-morpholin-4-yl]quinoline-8-carbonitrile]: the IC50 came to 19 nM.

Regarding `Cc1nn(C2CN(C[C@H]3CN(c4ccc(C#N)c5ncccc45)C[C@@H](C)O3)C2)c2c1CNCC2` [Example 12, 5-[(2R,6S)-2-methyl-6-[[3-(3-methyl-4,5,6,7-tetrahydropyrazolo[4,3-c]pyridin-1-yl)azetidin-1-yl]methyl]morpholin-4-yl]quinoline-8-carbonitrile], the IC50 was 44 nM.

Take `Cc1c2c(nn1C1CN(C[C@H]3CN(c4ccc(C#N)c5ncccc45)C[C@@H](C)O3)C1)CCNC2` [Example 13, 5-[(2R,6S)-2-methyl-6-[[3-(3-methyl-4,5,6,7-tetrahydropyrazolo[4,3-c]pyridin-2-yl)azetidin-1-yl]methyl]morpholin-4-yl]quinoline-8-carbonitrile]: the IC50 came out at 45 nM.

As for `Cc1nn(C2CN(C[C@H]3CN(c4ccc(C#N)c5ncccc45)C[C@@H](C)O3)C2)c2c1CN(C)CC2` [Example 14, 5-[(2S,6R)-2-[[3-(3,5-dimethyl-6,7-dihydro-4H-pyrazolo[4,3-c]pyridin-1-yl)azetidin-1-yl]methyl]-6-methyl-morpholin-4-yl]quinoline-8-carbonitrile], the IC50 is 10 nM.
